Assay results published in patent US20230201202A1, “COMPOSITIONS AND METHODS FOR SENSITIZING ACUTE MYELOID LEUKEMIAS TO CHEMOTHERAPY” (Duke University, priority 2020, published 2023).

What was measured:
Assay type in all cases: cell-based
[1] = test system: phosphorylation of AKT and downstream substrates; test: Western immunoblotting of AKT pathway phosphorylation in AML cell lines; conditions: for Phosphorylation of AKT and its downstream substrates: cell line models of AML, immunoblot (FIG. 1d, FIG. 4b)
phosphorylation of AKT = test: Conditioned media and SDF1-a cytokine experiments (AKT activation in AML cells)
Method: Serum free RPMI-1640 medium with incubated with a confluent plate of HS-5 cells for 36 hours. Conditioned media was centrifuged at 1200 rpm for 5 minutes and filtered with a 0.45 uM filter to remove any remaining cells. AML cells were incubated with conditioned media with or without IPI-549 for 30 minutes prior to harvesting on ice for lysate preparation. An analogous strategy was performed with SDF-1a (200 ng/mL) containing media. SDF-1a was purchased from ProteinTech and solubilized in water.

AML cells = test: In vitro drug sensitivity assay (GI50 assay, CellTiter-Glo); conditions: for Sensitization of AML cells to the drug by IPI-549 treatment; GI50 of combination vs drug alone: indicated AML cell lines (FIG. 3a-b); for Chemosensitization to the drug mediated by PI3Kγ inhibition with IPI-549: OCI-AML2 cells (FIG. 6); for Chemosensitization of AML cells by inhibitors of alternative PI3K catalytic isoforms (p110α, p110β, p110δ): sensitivity to doxorubicin, S63845 or selinexor (FIG. 3b)
Method: AML cells were plated in 96-well plates at a density of 5,000-10,000 cells per 100 μL per well. Wells were treated with drug dilution series at the doses indicated and cultured for 72 hours. Subsequently, relative cell viability was approximated using Promega CellTiter-Glo Luminescent Cell Viability Assay, normalized to either DMSO or the indicated background drug. GI50 values where approximated from dose-response curves plotted using GraphPad/Prism 8 software.

## C[C@H](NC(=O)c1c(N)nn2cccnc12)c1cc2cccc(C#Cc3cnn(C)c3)c2c(=O)n1-c1ccccc1 [IPI-549]
[1]
  Phosphorylation of AKT and its downstream substrates: lost
Phosphorylation of AKT; HL-60 (500 nM) and OCI-AML3 (100 nM IPI-549) cells (FIG. 1g)
  Activation of AKT signaling by media conditioned with human BM-MSCs (HS-5): fully precluded
Phosphorylation of AKT; serum-deprived AML cells, 200 ng/mL SDF1α, HL-60 500 nM, OCI-AML3 100 nM IPI-549 (FIG. 1h)
  Activation of AKT by SDF1α (CXCL12) stimulation: prevented
AML cells; panel of 10 AML cell lines (FIG. 5b-d)
  Correlation of sensitivity (GI50) to IPI-549 with sensitivity to AKT inhibition with MK-2206: strongly correlated

## CC(=O)[C@]1(O)Cc2c(O)c3c(c(O)c2[C@@H](O[C@H]2C[C@H](N)[C@H](O)[C@H](C)O2)C1)C(=O)c1ccccc1C3=O [idarubicin]
AML cells
  Sensitization of AML cells to the drug by IPI-549 treatment; GI50 of combination vs drug alone: can sensitize

## O=C(/C=C\n1cnc(-c2cc(C(F)(F)F)cc(C(F)(F)F)c2)n1)NNc1cnccn1 [selinexor]
AML cells
  Sensitization of AML cells to the drug by IPI-549 treatment; GI50 of combination vs drug alone: can sensitize

## Nc1ccn([C@@H]2O[C@H](CO)[C@@H](O)[C@@H]2O)c(=O)n1 [cytarabine]
AML cells
  Chemosensitization to the drug mediated by PI3Kγ inhibition with IPI-549: not observed

## Nc1ncn([C@@H]2O[C@H](CO)[C@@H](O)[C@H]2O)c(=O)n1 [azacytidine]
AML cells
  Chemosensitization to the drug mediated by PI3Kγ inhibition with IPI-549: not observed

## CNC(=O)c1cc(Oc2ccc(NC(=O)Nc3ccc(Cl)c(C(F)(F)F)c3)cc2)ccn1 [sorafenib]
AML cells
  Sensitization of AML cells to the drug by IPI-549 treatment; GI50 of combination vs drug alone: can sensitize

## Cc1sc2c(c1C)C(c1ccc(Cl)cc1)=N[C@@H](CC(=O)OC(C)(C)C)c1nnc(C)n1-2 [JQ1]
AML cells
  Sensitization of AML cells to the drug by IPI-549 treatment; GI50 of combination vs drug alone: can sensitize

## O=C1[O][Pt]2([NH][C@@H]3CCCC[C@H]3[NH]2)[O]C1=O [oxaliplatin]
AML cells
  Chemosensitization to the drug mediated by PI3Kγ inhibition with IPI-549: not observed

## CC(C)n1nc(-c2ccc3oc(N)nc3c2)c2c(N)ncnc21 [MLN-128]
AML cells; panel of AML cell lines (FIG. 2d, FIG. 5g)
  Effect on potency of AKT/p110γ inhibition (MK-2206 or IPI-549); GI50 of combination vs single drug: enhanced the potency

## Cc1c(-c2c(-c3ccc(F)o3)sc3ncnc(O[C@H](Cc4ccccc4OCc4ccnn4CC(F)(F)F)C(=O)O)c23)ccc(OCCN2CCN(C)CC2)c1Cl [compound 563845]
AML cells
  Sensitization of AML cells to the drug by IPI-549 treatment; GI50 of combination vs drug alone: can sensitize

## CC(=O)O[C@@]12CO[C@@H]1C[C@H](O)[C@@]1(C)C(=O)[C@H](O)C3=C(C)[C@@H](OC(=O)[C@H](O)[C@@H](NC(=O)OC(C)(C)C)c4ccccc4)C[C@@](O)([C@@H](OC(=O)c4ccccc4)[C@H]21)C3(C)C [docetaxel]
AML cells
  Chemosensitization to the drug mediated by PI3Kγ inhibition with IPI-549: not observed

## Cc1nc(NC(=O)N2CCC[C@H]2C(N)=O)sc1-c1ccnc(C(C)(C)C(F)(F)F)c1 [BYL-719, Alpelisib]
[1]
  Phosphorylation of AKT and its downstream substrates: minimally capable of suppressing
AML cells
  Chemosensitization of AML cells by inhibitors of alternative PI3K catalytic isoforms (p110α, p110β, p110δ): not observed

## COc1cccc2c1C(=O)c1c(O)c3c(c(O)c1C2=O)C[C@@](O)(C(C)=O)C[C@@H]3O[C@H]1C[C@H](N)[C@H](O)[C@H](C)O1 [daunorubicin]
AML cells; any of the AML models tested (FIG. 2e; legend prints BYL-549)
  Daunorubicin sensitivity under p110α inhibition; GI50 of combination vs daunorubicin alone: did not alter
AML cells; in 9/10 AML cell lines tested (FIG. 2e)
  Daunorubicin sensitivity under p110γ inhibition (IPI-549); GI50 of combination vs daunorubicin alone: significantly potentiated
AML cells
  Sensitization of AML cells to the drug by IPI-549 treatment; GI50 of combination vs drug alone: can sensitize

## O=C(Nc1ccc2[nH]nc(-c3ccncc3)c2c1)[C@@H]1CCN(CC(=O)N2CCN(c3ccc(-c4ncccn4)cc3)CC2)C1 [SCH772984]
AML cells
  Sensitization of AML cells to the drug by IPI-549 treatment; GI50 of combination vs drug alone: can sensitize

## CC(C)(C)c1cc(NC(=O)Nc2ccc(-c3cn4c(n3)sc3cc(OCCN5CCOCC5)ccc34)cc2)no1 [quizartinib]
AML cells
  Sensitization of AML cells to the drug by IPI-549 treatment; GI50 of combination vs drug alone: can sensitize

## COc1cc([C@@H]2c3cc4c(cc3[C@@H](O[C@@H]3O[C@@H]5CO[C@@H](C)O[C@H]5[C@H](O)[C@H]3O)[C@H]3COC(=O)[C@H]23)OCO4)cc(OC)c1O [etoposide]
AML cells
  Sensitization of AML cells to the drug by IPI-549 treatment; GI50 of combination vs drug alone: can sensitize

## CN1CC[C@@H](NC(=O)Nc2ccc(C#N)cc2)C[C@@H]1c1nc2ccccc2[nH]1 [glasdegib]
AML cells
  Chemosensitization to the drug mediated by PI3Kγ inhibition with IPI-549: not observed

## Cc1cc(C(C)Nc2ccccc2)c2nc(N3CCOCC3)cc(=O)n2c1 (stereo not drawn) [TGX-221]
AML cells
  Chemosensitization of AML cells by inhibitors of alternative PI3K catalytic isoforms (p110α, p110β, p110δ): not observed

## pertussis toxin
[1]; AML cell lines, Ptx 100 ng/mL for 24 hours (FIG. 1f)
  AKT phosphorylation: diminished

## CN(Cc1cnc2nc(N)nc(N)c2n1)c1ccc(C(=O)N[C@@H](CCC(=O)O)C(=O)O)cc1 [methotrexate]
AML cells
  Chemosensitization to the drug mediated by PI3Kγ inhibition with IPI-549: not observed

## COc1cccc2c1C(=O)c1c(O)c3c(c(O)c1C2=O)C[C@@](O)(C(=O)CO)C[C@@H]3O[C@H]1C[C@H](N)[C@H](O)[C@H](C)O1 [doxorubicin]
AML cells
  Sensitization of AML cells to the drug by IPI-549 treatment; GI50 of combination vs drug alone: can sensitize
